The values below come from US11840686B2, “Modulation of prekallikrein (PKK) expression” (Ionis Pharmaceuticals, Inc., priority 2013, dated 2023).

As a reminder, the % inhibition is the relative decrease from the control value, in per cent. High values mean a response far below the control, low ones a response near the control. The term IC50 denotes the concentration that inhibits the measured activity by half. A lower IC50 goes with greater potency.

Strand notation (5' to 3'): a small letter for the sugar, then the base; units joined by * are phosphorothioate-linked, units joined directly phosphodiester-linked; [ ] holds rarer units or linkages, { } end groups; capitals alone tell only the bases. e = 2'-O-(2-methoxyethyl) (MOE); [5mC] = 5-methylcytosine; d = 2'-deoxy (DNA) Some results are limits rather than exact numbers.

The test system of data set [1] is human PKK mRNA. The experiment in a line: Antisense inhibition of human PKK mRNA in HepaRG cells, 5,000 nM (Example 2). Format: cell-based. As to conditions: HepaRG cells, 5,000 nM antisense oligonucleotide. Put shortly: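 Chimeric MOE gapmers with full phosphorothioate backbones were tested once at 5,000 nM in electroporated HepaRG cells. After about 24 hours, quantitative PCR measured PKK mRNA relative to untreated control cells.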

In data set [2] the test system is human PKK mRNA. Briefly: Dose-dependent antisense inhibition of human PKK in HepaRG cells, 0.19-5.00 uM (Example 5). The class given is cell-based. As to conditions: for percent inhibition of PKK mRNA, 0.19 μM: 0.19 μM antisense oligonucleotide; for percent inhibition of PKK mRNA, 0.56 μM: 0.56 μM antisense oligonucleotide; for percent inhibition of PKK mRNA, 1.67 μM: 1.67 μM antisense oligonucleotide; for percent inhibition of PKK mRNA, 5.00 μM: 5.00 μM antisense oligonucleotide. The procedure, abridged: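 PKK mRNA knockdown was measured by real-time PCR (primer probe set RTS3454) about 16 h after electroporating 20,000 HepaRG cells per well with oligonucleotide at four doses from 0.19 to 5.00 μM. Levels were adjusted to RIBOGREEN-measured total RNA, and IC50 values were calculated.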

[3] abbreviates: HepaRG cells, electroporation, approximately 16 hours, Table 40.
Setting [4] is: 4 point dose response, HepaRG cells, Table 40.
Where [5] appears, read: HepaRG cells, electroporation, approximately 16 hours, Table 38.
Setting [6] is: HepaRG cells, electroporation, approximately 16 hours, Table 37.
The mark [7] stands for this setting: HepaRG cells, electroporation, approximately 16 hours, Table 39.
[8] abbreviates: Table 34, HepaRG, electroporation, ~16 h.
Setting [9] is: HepaRG cells, electroporation, approximately 16 hours, Table 36.

Consider “547780 (antisense e[5mC]*e[5mC]*e[5mC]*e[5mC]*eT*d[5mC]*dT*dT*dA*dA*dA*dT*dA*dG*d[5mC]*eA*e[5mC]*eA*eT*eG) [compound 547780]”, for which, in data set [1] (5-10-5 gapmers, Table 17), the “% inhibition” value worked out at 67%. In addition, in data set [2] (setting [3]), the “percent inhibition of PKK at 0.19 μM” value amounted to 0%, the “percent inhibition of PKK at 0.56 μM” value is 10%, the “percent inhibition of PKK at 1.67 μM” value turned out to be 36% and the “percent inhibition of PKK at 5.00 μM” value worked out at 55%. In data set [2] (setting [4]), this substance showed an IC50 of 3900 nM.

With “548743 (DNA e[5mC]*eA*e[5mC]*eT*dG*dT*dA*d[5mC]*dT*dA*dG*dT*dT*eT*e[5mC]*e[5mC]*eT; antisense) [compound 548743]”, in data set [1] (human PKK mRNA, Table 18), the “% inhibition” value was 80%. In data set [2] (setting [3]), the “percent inhibition of PKK at 0.19 μM” value amounted to 25%, the “percent inhibition of PKK at 0.56 μM” value came out at 57%, the “percent inhibition of PKK at 1.67 μM” value is 73% and the “percent inhibition of PKK at 5.00 μM” value is reported as 88%. In data set [2] (setting [4]), the IC50 amounted to 500 nM. In data set [2] (HepaRG cells), the “percent inhibition of PKK mRNA, 0.19 μM” value is on record as 22%; the “percent inhibition of PKK mRNA, 0.56 μM” value is recorded as 47%; the “percent inhibition of PKK mRNA, 1.67 μM” value is reported as 74%; the “percent inhibition of PKK mRNA, 5.00 μM” value is reported as 96%. The substance further yielded an IC50 in data set [2] (HepaRG cells, 0.19-5.00 μM) of 600 nM.

Turning to “548744 (DNA eT*e[5mC]*eA*e[5mC]*dT*dG*dT*dA*d[5mC]*dT*dA*dG*dT*eT*eT*e[5mC]*e[5mC]; antisense) [compound 548744]”, in data set [1] (human PKK mRNA, Table 18), the “% inhibition” value was 83%. In data set [2] (setting [5]), the “percent inhibition of PKK at 0.19 μM” value is reported as 14%, the “percent inhibition of PKK at 0.56 μM” value is 35%, the “percent inhibition of PKK at 1.67 μM” value was 63% and the “percent inhibition of PKK at 5.00 μM” value turned out to be 83%. Further, the IC50 in data set [2] (4 point dose response, HepaRG cells, Table 38) was found to be 1000 nM.

Take “548752 (antisense e[5mC]*eA*e[5mC]*eT*dG*dT*dA*d[5mC]*dT*dA*dG*dT*dT*dT*e[5mC]*e[5mC]*eT*eA) [compound 548752]”: the “% inhibition” value in data set [1] (human PKK mRNA, Table 18) turned out to be 89%. In data set [2] (setting [6]), the “percent inhibition of PKK at 0.19 μM” value is 0%, the “percent inhibition of PKK at 0.56 μM” value is recorded as 0%, the “percent inhibition of PKK at 1.67 μM” value was 51% and the “percent inhibition of PKK at 5.00 μM” value was 90%. In data set [2] (4 point dose response, HepaRG cells, Table 37), this substance showed an IC50 of 1900 nM.

On to “548753 (antisense eT*e[5mC]*eA*e[5mC]*dT*dG*dT*dA*d[5mC]*dT*dA*dG*dT*dT*eT*e[5mC]*e[5mC]*eT) [compound 548753]”, for which the “% inhibition” value in data set [1] (human PKK mRNA, Table 18) was determined as 82%. Also, in data set [2] (setting [3]), the “percent inhibition of PKK at 0.19 μM” value is recorded as 0%, the “percent inhibition of PKK at 0.56 μM” value is reported as 23%, the “percent inhibition of PKK at 1.67 μM” value was 49% and the “percent inhibition of PKK at 5.00 μM” value is 84%. For the same substance, 1500 nM corresponded to half-maximal inhibition in data set [2] (setting [4]) (IC50).

On to “548756 (antisense eG*eT*eA*eT*d[5mC]*dA*d[5mC]*dT*dG*dT*dA*d[5mC]*dT*eA*eG*eT*eT) [compound 548756]”, for which the “% inhibition” value in data set [1] (human PKK mRNA, Table 18) is recorded as 81%. Also, in data set [2] (setting [3]), the “percent inhibition of PKK at 0.19 μM” value is recorded as 0%, the “percent inhibition of PKK at 0.56 μM” value stood at 4%, the “percent inhibition of PKK at 1.67 μM” value is listed as 16% and the “percent inhibition of PKK at 5.00 μM” value amounted to 86%. The same substance gave an IC50 in data set [2] (setting [4]) of over 5000 nM.

In the case of “548757 (antisense eA*eG*eT*eA*dT*d[5mC]*dA*d[5mC]*dT*dG*dT*dA*d[5mC]*eT*eA*eG*eT) [compound 548757]”, in data set [1] (human PKK mRNA, Table 18), the “% inhibition” value amounted to 87%. For the same substance, in data set [2] (setting [7]), the “percent inhibition of PKK at 0.19 μM” value was found to be 18%, the “percent inhibition of PKK at 0.56 μM” value was 49%, the “percent inhibition of PKK at 1.67 μM” value was found to be 82% and the “percent inhibition of PKK at 5.00 μM” value amounted to 93%. This substance registered an IC50 in data set [2] (4 point dose response, HepaRG cells, Table 39) of 600 nM.

In the case of “548758 (antisense e[5mC]*eA*eG*eT*dA*dT*d[5mC]*dA*d[5mC]*dT*dG*dT*dA*e[5mC]*eT*eA*eG) [compound 548758]”, the “% inhibition” value in data set [1] (human PKK mRNA, Table 18) is reported as 97%. In addition, the “percent inhibition of PKK at 0.19 0μM” value in data set [2] (0.19 0μM, HepaRG cells, electroporation, approximately 16 hours, Table 41) is recorded as 0%. The “percent inhibition of PKK at 0.56 0μM” value in data set [2] (0.56 0μM, HepaRG cells, electroporation, approximately 16 hours, Table 41) stood at 72%. In addition, the “percent inhibition of PKK at 1.67 1μM” value in data set [2] (1.67 1μM, HepaRG cells, electroporation, approximately 16 hours, Table 41) came to 79%. Moreover, the IC50 in data set [2] (4 point dose response, HepaRG cells, Table 41) amounted to 600 nM. Further, in data set [2] (setting [8]), the “percent inhibition of PKK at 0.19 μM” value is 41%, the “percent inhibition of PKK at 0.56 μM” value is given as 47%, the “percent inhibition of PKK at 1.67 μM” value was 82% and the “percent inhibition of PKK at 5.00 μM” value is 94%. Also, the IC50 in data set [2] (Table 34, PKK mRNA, HepaRG, electroporation, ~16 h) is 400 nM.

For the substance “548770 (antisense eT*eA*eA*e[5mC]*dA*dG*dT*dA*dT*d[5mC]*dA*d[5mC]*dT*eG*eT*e[5mC]*e[5mC]) [compound 548770]”, the “% inhibition” value in data set [1] (human PKK mRNA, Table 18) worked out at 92%. In addition, in data set [2] (setting [9]), the “percent inhibition of PKK at 0.19 μM” value is 26%, the “percent inhibition of PKK at 0.56 μM” value is reported as 54%, the “percent inhibition of PKK at 1.67 μM” value worked out at 77% and the “percent inhibition of PKK at 5.00 μM” value is recorded as 91%. Also, the IC50 in data set [2] (4 point dose response, HepaRG cells, Table 36) was found to be 500 nM. In addition, in data set [2] (HepaRG cells), the “percent inhibition of PKK mRNA, 0.19 μM” value came out at 9%; the “percent inhibition of PKK mRNA, 0.56 μM” value is given as 0%; the “percent inhibition of PKK mRNA, 1.67 μM” value stood at 61%; the “percent inhibition of PKK mRNA, 5.00 μM” value is listed as 92%. Further, the IC50 in data set [2] (HepaRG cells, 0.19-5.00 μM) came to 1700 nM.
